Assay results as given in patent US6900194B1, “Use of substituted 4-biarylbutyric and 5-biarylpentanoic acid derivatives as matrix metalloprotease inhibitors for the treatment of respiratory diseases” (Bayer Aktiengesellschaft, priority 1998, dated 2005).

Tests used:
[1] = molecular target: MMP-13 (Human Collagenase 3) (Homo sapiens, UniProt P45452); assay: P218 quenched fluorescence assay, MMP-13 (human); format: biochemical
Source text: (§1) P218 Quenched Fluorescence Assay for MMP Inhibition:
(§2) This assay is adapted from the one described by Knight et al., FEBS Letters, 296, 263-266 (1992) for MMP-3 and a related substrate. The rate of hydrolysis of the synthetic substrate H-MCA-Pro-Lys-Pro-Leu-Ala-Leu-DPA-Ala-Arg-NH2 (P218) by the respective MMPs is monitored fluorometrically, using an excitation wavelength of 340 nm and an emission wavelength of 395 nm, in the presence or absence of the test compounds. The substrate is made up initially in 100% DMSO to a concentration of 1×10^−2 M, then diluted in assay buffer to a final concentration of 20 μM. […] The total assay volume in a 96 well microtitre plate is 150 μl, Cleavage of the substrate between the Leu-Ala residues allows the fluorescence of the MCA group to be detected on a fluorometer (Cytofluor II) following excitation at 340 nm and emission at 395 nm. Change in fluorescence is continually monitored for a 40 min period.
(§3) The Ki's are calculated using the method described by Williams and Morrison, Methods in Enzymology, 63, 437-467 (1979) to measure Ki apparent for tight binding inhibitors, and is summarised as follows: [I]0/(1−vi/v0)=Ki apparent ×vi/v0+[E]0 [I]0 and [E]0 are inhibitor and enzyme concentrations, and vi/v0 are reaction velocities with/without inhibitor. […]
(§4) IC50's are determined at each enzyme concentration using Xlfit software. […]

Rat MMP-13 = molecular target: T1, Rat MMP-13 (Rattus norvegicus, UniProt P23097); assay: P218 quenched fluorescence assay, MMP-13 (rat); format: biochemical; conditions: read-out: IC50 vs. MMP-13 (value marked *)
T1 construct: Rat pro-MMP-13 was obtained according to the protocol of Roswit, Arch; Biochem. Biophys
Source text: as §1, §2, §3, §4

Compound	IC50 ([1]; read-out: IC50 vs. MMP-13 (value marked *)) [µM]	IC50 (Rat MMP-13) [µM]	Ki ([1]; read-out: Potency Ki vs. MMP-13) [µM]
CCOc1ccc(-c2ccc(C(=O)CC(CCN3C(=O)c4ccccc4C3=O)C(=O)O)cc2)cc1 (single isomer, unassigned; (+)) [Example 2, (+)-2-[2-(1,3-Dioxo-1,3-dihydro-2H-isoindol-2-yl)ethyl]-4-(4′-ethoxy[1,1′-biphenyl]-4-yl)-4-oxobutanoic acid]	0.07	0.069	–
O=C(CC(CCN1C(=O)c2ccccc2C1=O)C(=O)O)c1ccc(-c2ccc(Cl)cc2)cc1 (single isomer, unassigned; (+)) [Example 4, (+)-4-(4′-Chloro[1,1′-biphenyl]4-yl)-2-[2-(1,3-dioxo-1,3-dihydro-2H-isoindol-2-yl)ethyl]-4-oxobutanoic acid]	–	0.296	0.0056
